Test results as given in ChEMBL document CHEMBL1157990, “Iridal-type triterpenoids with ichthyotoxic activity from belamcanda chinensis” (J Nat Prod, 1999).
≈ marks a conversion by molar mass, not a printed value.

Experiment: Ichthyotoxicity against Oryzias latipes after 24 hrs
Type: organism-based
Details: in vivo, read-out: TLm

Question: For `CCCCCCCCCC(=O)OCCC[C@@H]1/C(=C(/C)C=O)CC[C@](C)(O)[C@@]1(C)CC/C=C(\C)[C@@H](C/C=C(\C)CCC=C(C)C)OC(C)=O`, which LC50 at 24 h is on record?
Answer: Its LC50 at 24 h is over 30 µg/mL.

Question: With `CC(C)=CCC/C(C)=C/C=C/C(C)=C/[C@@H]1C[C@@]2(C(O)O1)[C@H](CCCO)/C(=C(/C)C=O)CC[C@]2(C)O` (some centres not stated) as the compound, how does the LC50 at 24 h read?
Answer: The LC50 at 24 h was 5.5 µg/mL (≈ 11.3 µM).

Question: With `C=C(/C=C/C=C(\C)CCC=C(C)C)[C@@H]1CC[C@]2([C@H](CCCO)/C(=C(/C)C=O)CC[C@]2(C)O)[C@@H]1O` as the compound, how does the LC50 at 24 h read?
Answer: Its LC50 at 24 h is 1.6 µg/mL (≈ 3.4 µM).

Question: Which LC50 at 24 h does the source give for `CC(C)=CCC/C(C)=C/C=C/C(C)=C/[C@H]1C[C@@]2(C(O)O1)[C@H](CCCO)/C(=C(/C)C=O)CC[C@]2(C)O` (some centres not stated) [BELACHINAL] here?
Answer: Its LC50 at 24 h is 2.8 µg/mL (≈ 5.75 µM).

Question: For `CCCCCCCCCCCCCC(=O)OCCC[C@@H]1/C(=C(/C)C=O)CC[C@](C)(O)[C@@]1(C)CC/C=C(\C)[C@H](O)C/C=C(\C)CCC=C(C)C` [IRISTECTORENE B], which LC50 at 24 h is on record?
Answer: Its LC50 at 24 h is 3.5 µg/mL (≈ 5.11 µM).

Question: With `CC(=O)OCCC[C@@H]1/C(=C(/C)C=O)CC[C@](C)(O)[C@@]1(C)CC/C=C(\C)[C@H](O)C/C=C(\C)CCC=C(C)C` as the compound, how does the LC50 at 24 h read?
Answer: The LC50 at 24 h was 0.8 µg/mL (≈ 1.55 µM).

Question: With `CC(C)=CCC/C(C)=C/C[C@@H](O)/C(C)=C/CC[C@@]1(C)[C@H](CCCO)/C(=C(/C)C=O)CC[C@]1(C)O` [ISOIRIDOGERMANAL] as the compound, how does the LC50 at 24 h read?
Answer: Its LC50 at 24 h is 9.3 µg/mL (≈ 19.6 µM).

Question: Which LC50 at 24 h does the source give for `C=C1CC/C=C(\C)C(=O)[C@H](O)[C@@H]2[C@@H]1CC2(C)C` [BUDDLEDIN B] here?
Answer: The LC50 at 24 h was 1.2 µg/mL (≈ 5.12 µM).

Question: For `CC(=O)OCCC[C@@H]1/C(=C(/C)C=O)CC[C@](C)(O)[C@@]1(C)CC/C=C(\C)[C@@H](C/C=C(\C)CCC=C(C)C)OC(C)=O`, which LC50 at 24 h is on record?
Answer: The LC50 at 24 h was over 10 µg/mL.

Question: For `CC(C)=CCC/C(C)=C/C=C/C(C)=C/[C@H]1C[C@@]23[C@H](OCCC[C@@H]2/C(=C(/C)C=O)CC[C@]3(C)O)O1` [EPIANHYDROBELACHINAL], which LC50 at 24 h is on record?
Answer: The LC50 at 24 h was over 10 µg/mL.

Question: For `CC(C)=CCC/C(C)=C/C=C/C(C)=C/[C@@H]1C[C@@]23[C@H](OCCC[C@@H]2/C(=C(/C)C=O)CC[C@]3(C)O)O1` [ANHYDROBELACHINAL], which LC50 at 24 h is on record?
Answer: Its LC50 at 24 h is over 10 µg/mL.

Question: For `CCCCCCCCCCCCCC(=O)OCCC[C@@H]1/C(=C(/C)C=O)CC[C@](C)(O)[C@@]1(C)CC/C=C(\C)[C@@H](C/C=C(\C)CCC=C(C)C)OC(C)=O`, which LC50 at 24 h is on record?
Answer: Its LC50 at 24 h is over 10 µg/mL.
